Assay results: patent US4757087A, “Carbacyclin derivatives” (Sankyo Company Limited, priority 1985, dated 1988)

What was measured:
[1] = Acute toxicity testing, intravenous; format: in vivo; conditions: intravenously, 10 mg per kg of body weight, five rats
[2] = test system: aspirin-induced ulcer; test: Effect on aspirin-induced ulcer (Brodie and Chase method); format: in vivo, rats of the Donryu strain (male); conditions: orally, rats, 15 min before 100 mg/kg aspirin, 4 h after aspirin
Protocol: According to a method reported by Brodie and Chase [Gastroenterology 53, 604 (1967)], the anti-ulcer effect was determined. Five male rats of the Donryu strain (body weight 170 to 200 g) were used for each of the control and test compound groups. After being fasted for 24 hours, the rats were orally given certain concentrations of the test compounds and 15 minutes later given orally 100 mg/kg of aspirin (Sanko Pharmaceutical Inc). Four hours after the aspirin administration, the stomach was extracted and expanded with 10 ml of 0.5% formalin. An ulcer index was calculated from the total area of ulceration for the rats of the treated and control groups. The inhibition rate was calculated by comparing the ulcer indices of both groups.

[3] = test system: blood platelet aggregation; conditions: GB 2012265A, U.S. Pat. No. 4,238,414; cited from earlier work
[4] = GB 2012265A, U.S. Pat. No. 4,238,414; cited from earlier work

Compound: C=CCCCC(C)[C@H](O)/C=C/[C@@H]1[C@H]2C/C(=C/CCCC(=O)O)C[C@H]2C[C@H]1O (stereo partly drawn) [Preparative Example 1, 16-Methyl-20-methylenecarbacyclin]
- deaths (acute toxicity) [1]: no deaths occurred
- Inhibition Rate (%) ([2]; 10 γ/kg (γ = 10^-6 g)): 45%
- Inhibition Rate (%) ([2]; 30 γ/kg (γ = 10^-6 g)): 95%
- Inhibition Rate (%) ([2]; 100 γ/kg (γ = 10^-6 g)): 98%

Compound: C=CCCCC(C)(C)[C@H](O)/C=C/[C@@H]1[C@H]2C/C(=C/CCCC(=O)O)C[C@H]2C[C@H]1O [Preparative Example 3, 16,16-Dimethyl-20-methylenecarbacyclin]
- Inhibition Rate (%) ([2]; 30 γ/kg (γ = 10^-6 g)): 92%

Compound: CC(C)=CCCCC(C)[C@H](O)/C=C/[C@@H]1[C@H]2C/C(=C/CCCC(=O)O)C[C@H]2C[C@H]1O (stereo partly drawn) [Preparative Example 6, 16-Methyl-20-isopropylidenecarbacyclin]
- Inhibition Rate (%) ([2]; 30 γ/kg (γ = 10^-6 g)): 84%

Compound: CCCCC[C@H](O)/C=C/[C@@H]1[C@H]2C/C(=C/CCCC(=O)O)C[C@H]2C[C@H]1O [Reference Compound A, Carbacyclin]
- inhibition of blood platelet aggregation [3]: inhibition of blood platelet aggregation
- chemical stability [4]: chemically stable
- Inhibition Rate (%) ([2]; 100 γ/kg (γ = 10^-6 g)): 0%
- Inhibition Rate (%) ([2]; 300 γ/kg (γ = 10^-6 g)): 0%

Compound: CCC=CC[C@H](O)/C=C/[C@@H]1[C@H]2C/C(=C/CCCC(=O)O)C[C@H]2C[C@H]1O [Reference Compound B, 17,18-Didehydrocarbacyclin]
- Inhibition Rate (%) ([2]; 30 γ/kg (γ = 10^-6 g)): 15%
- Inhibition Rate (%) ([2]; 100 γ/kg (γ = 10^-6 g)): 47%

Compound: CC(C)=CCCCC[C@H](O)/C=C/[C@@H]1[C@H]2C/C(=C/CCCC(=O)O)C[C@H]2C[C@H]1O [Reference Compound C, 20-Isopropylidenecarbacyclin]
- Inhibition Rate (%) ([2]; 300 γ/kg (γ = 10^-6 g)): 4%

Compound: CC(C)=CCCC(C)C[C@H](O)/C=C/[C@@H]1[C@H]2C/C(=C/CCCC(=O)O)C[C@H]2C[C@H]1O (stereo partly drawn) [Reference Compound D, 17-Methyl-20-isopropylidenecarbacyclin]
- Inhibition Rate (%) ([2]; 30 γ/kg (γ = 10^-6 g)): 30%
- Inhibition Rate (%) ([2]; 100 γ/kg (γ = 10^-6 g)): 98%
